# Laboratory results published in the NIST ThermoML archive (doi:10.1016/j.jct.2015.02.017).
# ± gives the expanded uncertainty stated by the source.
# Experiment: mn = molality of the nth substance listed, in mol/kg
# Conditions: 298.15 K, 101 kPa, Liquid; for viscosity: Capillary tube (Ostwald / Ubbelohde) method; for mass density: Vibrating tube method
compound,measurement,setting,value
C[n+]1ccn(CCCCCCn2cc[n+](C)c2)c1.[Br-].[Br-] + O,viscosity,m1 = 0.0407,0.917 ± 0.019 mPa·s
same,viscosity,m1 = 0.0989,0.953 ± 0.02 mPa·s
same,viscosity,m1 = 0.1196,0.966 ± 0.02 mPa·s
same,viscosity,m1 = 0.1403,0.98 ± 0.02 mPa·s
same,viscosity,m1 = 0.1604,0.993 ± 0.021 mPa·s
same,viscosity,m1 = 0.2001,1.02 ± 0.021 mPa·s
same,mass density,m1 = 0.0814,1006.92 ± 0.089 kg/m3
same,mass density,m1 = 0.1,1009.1 ± 0.09 kg/m3
same,mass density,m1 = 0.1206,1011.5 ± 0.09 kg/m3
same,mass density,m1 = 0.1403,1013.75 ± 0.092 kg/m3
same,mass density,m1 = 0.1772,1017.94 ± 0.095 kg/m3
C[n+]1ccn(CCCCCn2cc[n+](C)c2)c1.[Br-].[Br-] + O,viscosity,m1 = 0.05,0.917 ± 0.019 mPa·s
same,viscosity,m1 = 0.0967,0.943 ± 0.02 mPa·s
same,viscosity,m1 = 0.1108,0.949 ± 0.02 mPa·s
same,viscosity,m1 = 0.1389,0.966 ± 0.02 mPa·s
same,viscosity,m1 = 0.1621,0.979 ± 0.02 mPa·s
same,viscosity,m1 = 0.1929,0.996 ± 0.021 mPa·s
same,mass density,m1 = 0.05,1003.25 ± 0.088 kg/m3
same,mass density,m1 = 0.0825,1007.17 ± 0.09 kg/m3
same,mass density,m1 = 0.1108,1010.53 ± 0.091 kg/m3
same,mass density,m1 = 0.1522,1015.32 ± 0.093 kg/m3
same,mass density,m1 = 0.2152,1022.44 ± 0.099 kg/m3
C[n+]1ccn(CCCCn2cc[n+](C)c2)c1.[Br-].[Br-] + O,viscosity,m1 = 0.0993,0.94 ± 0.02 mPa·s
same,viscosity,m1 = 0.1398,0.958 ± 0.02 mPa·s
same,viscosity,m1 = 0.1597,0.967 ± 0.02 mPa·s
same,viscosity,m1 = 0.1794,0.977 ± 0.02 mPa·s
same,viscosity,m1 = 0.194,0.984 ± 0.02 mPa·s
same,viscosity,m1 = 0.2187,0.996 ± 0.021 mPa·s
same,viscosity,m1 = 0.2485,1.008 ± 0.021 mPa·s
same,mass density,m1 = 0.0993,1009.54 ± 0.091 kg/m3
same,mass density,m1 = 0.1398,1014.42 ± 0.093 kg/m3
same,mass density,m1 = 0.1597,1016.78 ± 0.095 kg/m3
same,mass density,m1 = 0.194,1020.81 ± 0.098 kg/m3
same,mass density,m1 = 0.2187,1023.65 ± 0.099 kg/m3
same,mass density,m1 = 0.2485,1027.04 ± 0.1 kg/m3
O=C[C@H](O)[C@@H](O)[C@H](O)[C@H](O)CO [D-glucose] + O,viscosity,m1 = 0.2,0.975 ± 0.02 mPa·s
same,viscosity,m1 = 0.4,1.068 ± 0.022 mPa·s
same,viscosity,m1 = 0.8,1.28 ± 0.027 mPa·s
same,viscosity,m1 = 1.2,1.532 ± 0.032 mPa·s
same,viscosity,m1 = 1.6,1.83 ± 0.038 mPa·s
same,mass density,m1 = 0.2,1010.41 ± 0.14 kg/m3
same,mass density,m1 = 0.4,1023.12 ± 0.14 kg/m3
same,mass density,m1 = 0.8,1046.88 ± 0.15 kg/m3
same,mass density,m1 = 1.2,1068.58 ± 0.16 kg/m3
same,mass density,m1 = 1.6,1088.48 ± 0.16 kg/m3
